Experimental data taken from the supplement of paper PMC13380429.

How the values were obtained:
Conditions in all cases: 72 h
Caco-2 [1] = assay: cell viability relative to DMSO; higher = less toxic
Calu-3 [2] = assay: as above
HepG2 [3] = assay: as above
U2OS [4] = assay: as above
Vero E6 [5] = assay: as above
Calu-3 [6] = assay: relative viability EC50 (midpoint between 100% and the lowest measured viability); higher = less toxic
U2OS [7] = assay: as above
Vero E6 [8] = assay: as above
Caco-2 [9] = assay: drug sensitivity score (DSS) for viability; higher = more toxic; extreme values may be limits of the assay
Calu-3 [10] = assay: as above
HepG2 [11] = assay: as above
U2OS [12] = assay: as above
Vero E6 [13] = assay: as above
Caco-2 [14] = assay: relative viability EC50 (midpoint between 100% and the lowest measured viability); higher = less toxic
HepG2 [15] = assay: as above

| SMILES | cell viability (Caco-2 [1]; 1 nM) [%] | cell viability (Caco-2 [1]; 10 nM) [%] | cell viability (Caco-2 [1]; 100 nM) [%] | cell viability (Caco-2 [1]; 1000 nM) [%] | cell viability (Caco-2 [1]; 10000 nM) [%] | cell viability (Calu-3 [2]; 1 nM) [%] | cell viability (Calu-3 [2]; 10 nM) [%] | cell viability (Calu-3 [2]; 100 nM) [%] | cell viability (Calu-3 [2]; 1000 nM) [%] | cell viability (Calu-3 [2]; 10000 nM) [%] | cell viability (HepG2 [3]; 1 nM) [%] | cell viability (HepG2 [3]; 10 nM) [%] | cell viability (HepG2 [3]; 100 nM) [%] | cell viability (HepG2 [3]; 1000 nM) [%] | cell viability (HepG2 [3]; 10000 nM) [%] | cell viability (U2OS [4]; 1 nM) [%] | cell viability (U2OS [4]; 10 nM) [%] | cell viability (U2OS [4]; 100 nM) [%] | cell viability (U2OS [4]; 1000 nM) [%] | cell viability (U2OS [4]; 10000 nM) [%] | cell viability (Vero E6 [5]; 1 nM) [%] | cell viability (Vero E6 [5]; 10 nM) [%] | cell viability (Vero E6 [5]; 100 nM) [%] | cell viability (Vero E6 [5]; 1000 nM) [%] | cell viability (Vero E6 [5]; 10000 nM) [%] | relative viability EC50 (Calu-3 [6]) [µM] | relative viability EC50 (U2OS [7]) [µM] | relative viability EC50 (Vero E6 [8]) [µM] | drug sensitivity score (Caco-2 [9]) | drug sensitivity score (Calu-3 [10]) | drug sensitivity score (HepG2 [11]) | drug sensitivity score (U2OS [12]) | drug sensitivity score (Vero E6 [13]) | relative viability EC50 (Caco-2 [14]) [µM] | relative viability EC50 (HepG2 [15]) [µM] |
| --- | --- | --- | --- | --- | --- | --- | --- | --- | --- | --- | --- | --- | --- | --- | --- | --- | --- | --- | --- | --- | --- | --- | --- | --- | --- | --- | --- | --- | --- | --- | --- | --- | --- | --- | --- |
| Cc1cc(C)c(NC(=O)N(Cc2ccc3c(c2)Cc2ccccc2-3)C2CCCCCC2)c(C)c1 [YM-750] | 98.6 | 100 | 96.6 | 100 | 55 | 94.1 | 95.3 | 84.9 | 85.6 | 83.3 | 96.2 | 93.5 | 103 | 92.9 | 59.8 | 97.8 | 99.8 | 94.8 | 94.6 | 79.9 | 96.9 | 98.1 | 91.9 | 101 | 88.3 | > 10 | > 10 | > 10 | 2.3 | 2.4 | 3.2 | 1 | 0 | – | – |
| CC[C@H](c1ccc(O)cc1)[C@@H](CC)c1ccc(O)cc1 [hexestrol] | 104 | 97.4 | 98.2 | 95 | 101 | – | – | – | – | – | 92.7 | 96.2 | 93.2 | 109 | 116 | 97.4 | 95.2 | 96.7 | 95.7 | 100 | 94 | 100 | 92.2 | 99 | 108 | – | > 10 | > 10 | 0 | – | 0 | 0 | 0 | > 10 | > 10 |
| CCOC(=O)N1c2ccc(C(F)(F)F)cc2[C@@H](N(Cc2cc(C(F)(F)F)cc(C(F)(F)F)c2)C(=O)OC)C[C@H]1CC | 108 | 108 | 100 | 101 | 87.2 | 96.4 | 98.9 | 98.4 | 86 | 69 | 99.3 | 106 | 94.3 | 93.6 | 75.5 | – | – | – | – | – | 98.3 | 99.1 | 96.2 | 98.4 | 85.2 | – | – | > 10 | 0.1 | 2.8 | 1.5 | – | 0.4 | > 10 | > 10 |
| COc1cccc(-c2cc(=O)c3ccccc3o2)c1N | 98.5 | 108 | 92.7 | 95.9 | 91.4 | 107 | 103 | 103 | 106 | 83.7 | 99.7 | 87.8 | 94.1 | 91.8 | 64.2 | 99.5 | 97.7 | 98.7 | 101 | 92 | 109 | 108 | 105 | 104 | 92 | > 10 | > 10 | > 10 | 0 | 0.2 | 2.9 | 0 | 0 | > 10 | – |
| C#CC1(OCC(O)CN2CCN(c3cccc(C(F)(F)F)c3)CC2)CCCCC1 (stereo unspecified) [terciprazine] | 102 | 92.2 | 101 | 86.1 | 87 | – | – | – | – | – | 96 | 110 | 110 | 91.1 | 90.9 | 100 | 98.6 | 99 | 96.8 | 95 | 106 | 93.6 | 104 | 99.4 | 87 | – | > 10 | > 10 | 1 | – | 0 | 0 | 0.1 | > 10 | > 10 |
| COc1ccccc1N1CCN(CCN(C(=O)C2CCCCC2)c2ccccn2)CC1 | 99.1 | 101 | 93.5 | 102 | 94 | 93.6 | 86.7 | 99 | 92.2 | 84.3 | – | – | – | – | – | 95.6 | 99.6 | 102 | 100 | 95.5 | 104 | 102 | 104 | 97.2 | 99.1 | > 10 | > 10 | > 10 | 0 | 0 | – | 0 | 0 | > 10 | – |
| CC[C@H]1OC(=O)[C@@](C)(F)C(=O)[C@H](C)[C@@H](O[C@@H]2O[C@H](C)C[C@H](N(C)C)[C@H]2O)[C@](C)(OC)C[C@@H](C)C(=O)[C@H](C)[C@H]2N(CCCCn3cc(-c4cccc(N)c4)nn3)C(=O)O[C@]12C [solithromycin] | 105 | 90.6 | 101 | 107 | 93.3 | 104 | 100 | 98.4 | 97.2 | 89.8 | 102 | 102 | 87.4 | 94.2 | 58.7 | 97.6 | 95.5 | 94.6 | 103 | 91 | 98.2 | 100 | 97.2 | 104 | 93.4 | > 10 | > 10 | > 10 | 0 | 0 | 3.1 | 0 | 0 | > 10 | – |
| COc1ccc(-n2[nH]c3c4c(ncc3c2=O)CCCCC4)cc1 | 99.9 | 107 | 95.7 | 107 | 94.2 | 110 | 98.7 | 99.8 | 97.2 | 112 | – | – | – | – | – | 96.4 | 100 | 94.2 | 103 | 95.9 | 102 | 105 | 100 | 98.2 | 99.6 | > 10 | > 10 | > 10 | 0 | 0 | – | 0 | 0 | > 10 | – |
| Fc1ccc(C(OCCN2CCN(C/C=C/c3ccccc3)CC2)c2ccc(F)cc2)cc1 | 102 | 100 | 104 | 94.2 | 83.5 | 97.8 | 106 | 110 | 99.7 | 95.3 | 87.6 | 101 | 101 | 96.2 | 72.1 | 103 | 100 | 103 | 98.4 | 94.8 | 99.6 | 106 | 101 | 96 | 86.7 | > 10 | > 10 | > 10 | 0.9 | 0 | 1.8 | 0 | 0.4 | > 10 | – |
| C=CC(=O)Nc1cccc(Oc2nc(Nc3ccc(N4CCN(C)CC4)cc3OC)ncc2Cl)c1 [WZ-4002] | 101 | 95.9 | 94.9 | 94.4 | 83.7 | 94.4 | 97 | 90.8 | 88.6 | 56.9 | 98.1 | 101 | 101 | 104 | 109 | 94.5 | 101 | 98.9 | 99.3 | 93.5 | 98.6 | 102 | 103 | 88.4 | 78.1 | – | > 10 | > 10 | 0.3 | 3.5 | 0 | 0 | 2 | > 10 | > 10 |
| Cc1sc2c(c1C)C(c1ccc(Cl)cc1)=N[C@@H](CC(=O)Nc1ccc(OCCOCCOCCOCCNc3cccc4c3C(=O)N(C3CCC(=O)NC3=O)C4=O)cc1)c1nnc(C)n1-2 (stereo partly specified) [ARV-825] | 91.4 | 92.6 | 90.1 | 44 | 51.7 | 95.1 | 91.4 | 111 | 72 | 62.9 | 95.4 | 103 | 89.9 | 40.5 | 25.2 | 95.4 | 93.6 | 96.9 | 51 | 31.7 | 94.6 | 105 | 91 | 76.3 | 11 | – | 0.577 | 1.55 | 12 | 5 | 12.3 | 9.9 | 8.3 | 0.184 | 0.381 |
| Nc1nnc(Sc2ncc([N+](=O)[O-])s2)s1 [SU3327] | 105 | 104 | 103 | 94.2 | 8.8 | 99.7 | 104 | 99.2 | 100 | 62.7 | 100 | 104 | 96.1 | 76.2 | 0 | 103 | 92.7 | 98 | 93.4 | 0.1 | 101 | 101 | 98.8 | 95.6 | 1.4 | – | 2.64 | 2.83 | 5.9 | 1.8 | 9.2 | 6.5 | 6.1 | 2.66 | 1.59 |
| CN1[C@@H]2CC[C@H]1C[C@@H](OC1c3ccccc3CCc3ccccc31)C2 [deptropine] | 92.1 | 97.5 | 96.3 | 92.5 | 83.4 | 98.8 | 107 | 108 | 97.8 | 72.8 | 102 | 96.3 | 102 | 98.6 | 76.7 | 101 | 106 | 99.9 | 103 | 93 | 96.4 | 93.8 | 98.8 | 93.8 | 77.3 | – | > 10 | > 10 | 0.3 | 1.4 | 1 | 0 | 1.6 | > 10 | > 10 |
| N#Cc1ccc(C(c2ccc(C#N)cc2)n2cncn2)cc1 [letrozole] | 106 | 107 | 96.2 | 105 | 97.3 | 97.1 | 101 | 101 | 99.1 | 99 | – | – | – | – | – | 104 | 105 | 99.6 | 107 | 101 | 106 | 106 | 114 | 99.9 | 105 | > 10 | > 10 | > 10 | 0 | 0 | – | 0 | 0 | > 10 | – |
| CC(C[N+](C)(C)C)OC(N)=O (stereo unspecified) [bethanechol] | 121 | 111 | 118 | 97.4 | 104 | – | – | – | – | – | 97.1 | 104 | 92.1 | 106 | 106 | 100 | 98.8 | 98.3 | 95.5 | 95.7 | 99.3 | 91.8 | 103 | 86.8 | 98.2 | – | > 10 | > 10 | 0 | – | 0 | 0 | 0 | > 10 | > 10 |
